Entries after “also recorded” stand apart in the source; their conditions may differ.
Key:
Pliss limphosarcoma = experiment: growth of transplanted Pliss limphosarcoma in rats; assay type: in vivo; conditions: 50 mg/kg i.p., once per day, 5 times per week, 10 injections; tumor volumes day 6, 9, 13, 16 and mortality vs control; Anoceptin 1% solution
Method: Comenic acid (in medicinal form, referred to as “Anoceptin™”) was also tested on rats with transplanted tumors (Pliss limphosarcoma) to determine if it stimulated tumor growth (Effect of medicine Anoceptin on the growth of transplantable tumor in rats, State Oncology Institute, 2006, Saint-Petersburg, Russia). Pliss limphosarcoma was transplanted subcutaneously into 20 rats. Forty-eight hours after transplantation, the rats were randomly assigned into groups (10 rats in experimental group, and 10 in control group) and the injections were started. Both groups were injected i.p. (intraperitoneal) once per day, 5 times per week and given a total of 10 injections each. The experimental group was administered 50 mg/kg of comenic acid in each injection, while the control group was injected with 1.5 ml of physiological solution. Comenic acid was utilized in its medicinal form (“Anoceptin™”), a 1% solution with ions of proper moiety. For both groups, the size of the tumor was measured on day 6, 9, 13 and 16 of the experiment, and the volumes were calculated. […] The data was determined to be statistically significant, with p<0.05.

[1] = system: opioid (or opioid-like) receptor; experiment: patch-clamp experiments, receptor binding (naltrexone block, affinity order); assay type: cell-based; conditions: patch-clamp results, decreasing affinity
Source text: The physiological effect on the Nav1.8 channel of the following closely related gamma-pyrone derivatives (see FIG. 1) was investigated: I) comenic acid (5-hydroxy-gamma-pyrone-2-carboxylic acid), II) meconic acid (3-hydroxy-gamma-pyrone-2,6-dicarboxylic acid, III) 5-methoxy-gamma-pyrone-2-carboxylic acid, IV) kojic acid (2-hydroxymethyl-5-hydroxy-gamma-pyrone) and V) chelidonic acid (gamma-pyrone-2,6-dicarboxylic acid). […] Clinical Pathophysiology (Russian), in press].
Thus, according to the model of the mechanism of ligand receptor binding of said opioid (or opioid like) receptor, the prerequisites for gamma-pyrones receptor activity are 1) a carboxy group in position 2 of the pyranone ring, 2) a carbonyl group in position 4 of the pyranone ring, and 3) a substituent in position 5 which can participate in Ca^2+ chelation. […] Clinical Pathophysiology (Russian), in press]. Based on these observations, several conclusions concerning the potential effect of substituents in positions 3, 5 and 6 on the stability of ligand-receptor complex can be drawn. The presence of a carboxy group in position 6 (meconic acid, II) increases ligand affinity to the receptor as compared with comenic acid (I). It may be proposed that the carboxy group in position 6 is involved in additional interaction with one or several polar functional groups of the receptor by formation of intermolecular hydrogen or salt bonds. Based on this, introduction of a hydrophobic substituent in position 6 should reduce the affinity of gamma-pyrone derivatives to said opioid (or opioid-like) receptor. […] An increase in the size of the alkoxy group in position 5 will also lead to a further decrease or even total loss of physiological activity of the gamma-pyrone molecule. Bulky substituents in positions 3, 5 and 6 will decrease the affinity of gamma-pyrones to said receptor, since they will less readily be accommodated in the binding pocket.

animals [2] = experiment: continued daily administration to animals (sedative effect, dependency); assay type: in vivo
Method: (§1) One of the preferred compounds of the invention is comenic acid, also known as 5-hydroxy-4-oxo-4H-pyran-2-carbon acid, as well as 5-hydroxy-gamma-pyrone-2-carboxylic acid. […] The effect is long lasting, up to 24 hours after administration. […] The acid can be administered in a number of pharmaceutically acceptable ways by mixing it with known and biologically acceptable carriers. Administration methods include all parenteral modes, including injection (intravenously, subcutaneously, intramuscularly or intraperitoneal), transdermally, transmucosally, etc. […] This duration compares quite favorably to a typical drug abuse treatment cycle of 3 to 6 months using substitution methods such as methadone.
The effect from each administration lasts up to 24 hours.

solubility = assay type: physicochemical
Ehrlich carcinoma = experiment: growth of transplanted Ehrlich carcinoma in rats; assay type: in vivo; conditions: 50 mg/kg i.p., once per day, 5 times per week, 10 injections; tumor volumes day 13-44 and mortality vs control; Anoceptin 1% solution
Method: Comenic acid (in medicinal form, referred to as “Anoceptin™”) was also tested on rats with transplanted tumors (Ehrlich carcinoma) to determine if it stimulated tumor growth (Effect of medicine Anoceptin on the growth of transplantable tumor, State Oncology Institute, 2006, Saint-Petersburg, Russia). Ehrlich carcinoma was transplanted subcutaneously into 20 rats. Forty-eight hours after transplantation, the rats were randomly assigned into groups (10 rats in experimental group, and 10 in control group) and the injections were started. Both groups were injected i.p. (intraperitoneal) once per day, 5 times per week and given a total of 10 injections each. The experimental group was administered 50 mg/kg of comenic acid in each injection, while each in the control group was injected with 0.125 ml of physiological solution. Comenic acid was utilized in its medicinal form (“Anoceptin™”), a 1% solution with ions of proper moiety. For both groups, the size of the tumor was measured on day 13, 16, 20, 23, 27, 30, 37 and 44 of the experiment, and the volumes were calculated. […] The data was determined to be statistically significant, with p<0.05.

male rats of Wistar line = experiment: "open field" test, motor activity of rats (sedative effect); assay type: in vivo, rat; conditions: for Motor activity after the preparation's introduction (n): enteral, squares crossed within 5 minutes; for Lowering motor activity relative to the control (%): vs saline; for Lowering motor activity relative to the Valerian extract (%): vs same dose of Valerian extract
Method: The sedative effect was measured by the change in motor activity of male rats of Wistar line with the mass of 0.20-0.23 kg in “the open field” test [Guiding and Method Materials in Experimental and Clinical Study of New Drugs. Part 2. M., 1980, pp. 126-133].
Male rats were subjected to the enteral introduction of 0.5 ml of saline solution. Then, the animals were divided into two groups. The rats in the first group were tested in “the open field” 60 minutes after the solution's introduction. The rats in the second group were tested 90 minutes after the introduction. The test consisted of the rat being placed in the center of “the open field”, and then the number of squares of “the open field” that the rat crosses within 5 minutes is counted (an estimation of motor activity).
Valerian extract was steamed until it became dry. Then, the dry remains were dissolved in saline in the required dosage (see table 1 and rated in mg/kg of a rat's body weight). The solution obtained was introduced into rats in the same way as for control. The testing of rats in “the open field” was also carried out as described for control.
Comenic acid was dissolved in saline in the desired dosages (see table 1 below). The solution's pH was adjusted to equal 6.5-6.8 using concentrated NaOH solution. Comenic acid was introduced into the rats in the same way as in control. The testing of rats in “the open field” was carried out as described for control group as well.

[3] = system: tetrodotoxin-resistant (TTXr) Nav1.8 slow sodium channels; experiment: patch-clamp experiments on dorsal root ganglion neurons; assay type: cell-based; conditions: for modulation of the activity of TTXr Nav1.8 slow sodium channels: patch-clamp, extracellular solution Na+ 65 mM, Ca2+ 2 mM, Mg2+ 2 mM
animals [4] = experiment: treatment of narcotic dependency / withdrawal syndrome in animals; assay type: in vivo; conditions: pharmacologically effective dose
Method: as §1
It is intended that the selected gamma-pyrones as described in the proceeding section be administered as a substitute for the abused drug. Typically, this will involve administration of a therapeutically effective amount of a composition containing the compounds of the invention at least once every twenty-four hours. […] The preferred dosage range is from about 0.05 to about 0.5 mg per kilogram of body weight per day. Such daily dosage can be achieved in a single application, multiple applications or using a continuous release application.

[5] = experiments repeated with the same rats

For `O=C(O)c1cc(=O)c(O)co1` [Comenic acid, 5-hydroxy-gamma-pyrone-2-carboxylic acid], the “effect on the growth of transplantable tumors of Pliss limphosarcoma” value (Pliss limphosarcoma) was “no effect (no stimulation and no inhibition)”, the “order of affinity of the test molecule to the receptor” value (“order” for short) [1] was “II>I>III” and the “drug dependency after continued daily use” value (animals [2]; 50 days of continued daily use) was “without causing drug dependency”. The “duration of the effect after administration” value (animals [2]; each administration) was “up to 24 hours”, the “solubility in non-polar organic solvents” value (solubility) was “practically insoluble” and the “solubility in water and alcohol” value (solubility) was “moderately water- and alcohol-soluble”. For the same molecule, the “effect on the growth of transplantable tumors of Ehrlich carcinoma” value (Ehrlich carcinoma) was “no effect (no stimulation and no inhibition)”, the “Motor activity after the preparation's introduction (n)” value (“Motor activity … (n)” below) (male rats of Wistar line; 1 mg/kg of body weight, 60 min) was 43.9 ± 6.8 n and the “Motor activity … (n)” value (male rats of Wistar line; 1 mg/kg of body weight, 90 min) was 51.2 ± 8.3 n. For the same molecule, the “Lowering motor activity relative to the control (%)” value (male rats of Wistar line; 1 mg/kg, 60 min) was 13%, the “Lowering motor activity relative to the Valerian extract (%)” value (male rats of Wistar line; 1 mg/kg, 60 min) was 19% and the “Lowering motor activity relative to the control (%)” value (male rats of Wistar line; 1 mg/kg, 90 min) was −8%. The “Lowering motor activity relative to the Valerian extract (%)” value (male rats of Wistar line; 1 mg/kg, 90 min) was −21%, the “Motor activity … (n)” value (male rats of Wistar line; 10 mg/kg of body weight, 60 min) was 37.6 ± 5.9 n and the “Motor activity … (n)” value (male rats of Wistar line; 10 mg/kg of body weight, 90 min) was 41.6 ± 6.8 n. The “Lowering motor activity relative to the control (%)” value (male rats of Wistar line; 10 mg/kg, 60 min) was 25%, the “Lowering motor activity relative to the Valerian extract (%)” value (male rats of Wistar line; 10 mg/kg, 60 min) was 22% and the “Lowering motor activity relative to the control (%)” value (male rats of Wistar line; 10 mg/kg, 90 min) was 12.5%. For the same molecule, the “Lowering motor activity relative to the Valerian extract (%)” value (male rats of Wistar line; 10 mg/kg, 90 min) was −9%, the “Motor activity … (n)” value (male rats of Wistar line; 50 mg/kg of body weight, 60 min) was 18.7 ± 3.3 n and the “Motor activity … (n)” value (male rats of Wistar line; 50 mg/kg of body weight, 90 min) was 15.2 ± 3.1 n. For the same molecule, the “Lowering motor activity relative to the control (%)” value (male rats of Wistar line; 50 mg/kg, 60 min) was 63%, the “Lowering motor activity relative to the Valerian extract (%)” value (male rats of Wistar line; 50 mg/kg, 60 min) was 52% and the “Lowering motor activity relative to the control (%)” value (male rats of Wistar line; 50 mg/kg, 90 min) was 68%. The “Lowering motor activity relative to the Valerian extract (%)” value (male rats of Wistar line; 50 mg/kg, 90 min) was 52%, the “Motor activity … (n)” value (male rats of Wistar line; 100 mg/kg of body weight, 60 min) was 13.4 ± 4.8 n and the “Motor activity … (n)” value (male rats of Wistar line; 100 mg/kg of body weight, 90 min) was 10.3 ± 2.8 n. The “Lowering motor activity relative to the control (%)” value (male rats of Wistar line; 100 mg/kg, 60 min) was 73%, the “Lowering motor activity relative to the Valerian extract (%)” value (male rats of Wistar line; 100 mg/kg, 60 min) was 67% and the “Lowering motor activity relative to the control (%)” value (male rats of Wistar line; 100 mg/kg, 90 min) was 78%. For the same molecule, the “Lowering motor activity relative to the Valerian extract (%)” value (male rats of Wistar line; 100 mg/kg, 90 min) was 53%, the development of tolerance (male rats of Wistar line; [5]) was “no development of tolerance” and the drug dependency (male rats of Wistar line; [5]) was “no indication of drug dependency”. For the same molecule, the “other side effects of the administration” value (male rats of Wistar line; [5]) was “no other side effects”, the “sedative effect compared with that of valerian extract” value (male rats of Wistar line; rats, open field, 50 and 100 mg/kg) was “twice” and the “modulation of the activity of TTXr Nav1.8 slow sodium channels” value (from here on “modulation”) ([3]; listed as I) was “modulated the activity; also recorded: shown to modulate the functioning”. The “treatment of narcotic dependency in animals” value (animals [4]) was “effective treatment for the cure of narcotic dependency”.
In the case of `O=C(O)c1cc(=O)c(O)c(C(=O)O)o1` [II, 3-hydroxy-gamma-pyrone-2,6-dicarboxylic acid], the “order” value [1] is reported as “II>I>III” and the “modulation” value [3] is reported as “modulated the activity”.
For `COc1coc(C(=O)O)cc1=O` [III, 5-methoxy-gamma-pyrone-2-carboxylic acid], the “order” value [1] was “II>I>III”, the “solubility in non-polar organic solvents” value (solubility) was “practically insoluble” and the “solubility in water and alcohol” value (solubility) was “moderately water- and alcohol-soluble”. For the same molecule, the “effect on the Nav1.8 slow sodium channel compared with comenic acid (I)” value ([3]; patch clamp, dorsal root ganglion neurons) was “decrease in activity” and the “modulation” value [3] was “modulated the activity; also recorded: shown to modulate the functioning”.
With `O=c1cc(CO)occ1O` [IV, 2-hydroxymethyl-5-hydroxy-gamma-pyrone, reference compound] the “modulation” value [3] was “did not exhibit such effect; also recorded: did not influence the functioning”.
In the case of `O=C(O)c1cc(=O)cc(C(=O)O)o1` [V, gamma-pyrone-2,6-dicarboxylic acid, reference compound], the “modulation” value [3] is reported as “did not exhibit such effect; also recorded: did not influence the functioning”.
